Measured values taken from patent publication US20230123334A1, “AMINO LIPID COMPOUND, PREPARATION METHOD THEREFOR, AND APPLICATION THEREOF” (SHENZHEN SHENXIN BIOTECHNOLOGY CO., LTD., priority 2020, published 2023).

System: HEK293 cells
Test: Preliminary screening as mRNA vectors, EGFP mRNA transfection of HEK293 cells
Format: cell-based
Conditions: EGFP mRNA 50 ng per well, 96-well plates; percentage of GFP fluorescent cells relative to total number of cells (Hoechst)
Procedure, shortened: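 Screening format: EGFP mRNA transfection (50 ng/well) into HEK293 in 10% FBS-supplemented DMEM. Percent green fluorescent cells, normalised to Hoechst nuclear count, gave the value; Lipofectamine2000 was the reference transfectant.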

Row | Structure (SMILES) | Absolute mRNA transfection efficiency in HEK293 cells
1 | CCCCCCCCCCCCCNc1nc(NCCN(C)C)nc(SCCCCCCCCCCCC)n1 [Compound D1S12N13] | 1.2%
2 | CCCCCCCCCCCCCCCCCCNc1nc(NCCCN2CCOCC2)nc(SCCCCCCCCCCCCCCC)n1 [Compound D8S15N18] | 0.4%
3 | CCCCCCCCCCCNc1nc(NCCN2CCOCC2)nc(SCCCCCCC)n1 [Compound D2S7N11] | 16.0%
4 | CCCCCCCCCCCCCCCSc1nc(NCCCN(C)C)nc(N(CCCCCCCCCCCC)CCCCCCCCCCCC)n1 [D6S15^2N12] | 2.9%
5 | CCCCCCCCCCCCCCCCCCSc1nc(NCCCCCCCCC)nc(NCCN2CCCC2)n1 [Compound D3S18N9] | 72.3%
6 | CCCCCCCCCCCCSc1nc(NCCN2CCOCC2)nc(SCCCCCC)n1 [Compound D2S6S12] | 1.5%
7 | CCCCCCCCCCCCCCCCSc1nc(NCCCCCCCCCCCC)nc(NCCN2CCCC2)n1 [Compound D3S16N12] | 1.7%
8 | CCCCCCCCCCCCCCSc1nc(NCCCN(C)C)nc(SCCCCCCC)n1 [Compound D6S7S14] | 59.7%
9 | CCCCCCCCCCCCCCCNc1nc(NCCN2CCCCC2)nc(SCCCCCCCCC)n1 [Compound D4S9N15] | 4.9%
10 | CCCCCCCCCCCCCCCCSc1nc(NCCCCCC)nc(NCCCN2CCOCC2)n1 [Compound D8S16N6] | 18.2%
11 | CCCCCCCCCCCCCCCCSc1nc(NCCCCCCC)nc(NCCN(C)C)n1 [Compound D1S16N7] | 65.1%
12 | CCCCCCCCCCCCCCCCCCNc1nc(NCCN(CC)CC)nc(SCCCCCCCCCCC)n1 [Compound D7S11N18] | 10.8%
13 | CCCCCCCCCCCCCCCCNc1nc(NCCN2CCCC2)nc(SCCCCCCCCCC)n1 [Compound D3S10N16] | 56.7%
14 | CCCCCCCCCSc1nc(NCCCCCCCC)nc(NCC2CCN(C)CC2)n1 [Compound D10S9N8] | 16.3%
15 | CCCCCCCCCCCCCCCSc1nc(NCCN2CCCCC2)nc(SCCCCCCC)n1 [Compound D4S7S15] | 6.7%
16 | CCCCCCCCCCCCCCCCCCNc1nc(NCCN2CCN(C)CC2)nc(SCCCCCCCCCCCCCCCC)n1 [Compound D5S16N18] | 0.2%
17 | CCCCCCCCCCCCCCCCCCSc1nc(NCCCCCCCCC)nc(NCCCN2CCOCC2)n1 [Compound D8S18N9] | 0.2%
18 | CCCCCCCCCCSc1nc(NCCN2CCCC2)nc(SCCCCCCC)n1 [Compound D3S7S10] | 3.3%
19 | CCCCCCCCCCCCNc1nc(NCCCN2CCN(C)CC2)nc(SCCCCCCCCCCCC)n1 [Compound D9S12N12] | 0.9%
20 | CCCCCCCCCCCSc1nc(NCCCCCCC)nc(NCCCN(C)C)n1 [Compound D6S11N7] | 29.1%
21 | CCCCCCCCCCCCSc1nc(NCCCN2CCN(C)CC2)nc(SCCCCCCCC)n1 [Compound D9S8S12] | 23.6%
22 | CCCCCCCCCCCCCCCCCCSc1nc(NCCCCCCCC)nc(NCCN2CCOCC2)n1 [Compound D2S18N8] | 3.1%
23 | CCCCCCCCCCSc1nc(NCCCN2CCN(C)CC2)nc(SCCCCCC)n1 [Compound D9S6S10] | 23.7%
24 | CCCCCCCCCCCCNc1nc(NCCN(CC)CC)nc(SCCCCCCCCCC)n1 [Compound D7S10N12] | 10.6%
25 | CCCCCCCCCSc1nc(NCC2CCN(C)CC2)nc(SCCCCCC)n1 [Compound D10S6S9] | 14.7%

Row | Structure (SMILES) | Absolute mRNA transfection efficiency in HEK293 cells
26 | CCCCCCCCCCCCSc1nc(NCCCCCCCCC)nc(NCCN2CCN(C)CC2)n1 [Compound D5S12N9] | 26.5%
27 | CCCCCCCCCCCCCCCCSc1nc(NCCCCCCCCCCCC)nc(NCCCN(C)C)n1 [Compound D6S16N12] | 2.0%
28 | CCCCCCCSc1nc(NCCCCCC)nc(NCCN(CC)CC)n1 [Compound D7S7N6] | 2.3%
29 | CCCCCCCCCCCCCCSc1nc(NCCN2CCOCC2)nc(SCCCCCC)n1 [Compound D2S6S14] | 6.6%
30 | CCCCCCCCCCCCCCCSc1nc(NCCN2CCCC2)nc(SCCCCCCC)n1 [Compound D3S7S15] | 12.0%
31 | CCCCCCCCCCCNc1nc(NCCCN2CCOCC2)nc(SCCCCCC)n1 [Compound D8S6N11] | 1.1%
32 | CCCCCCCCCCCCN(CCCCCCCCCCCC)c1nc(NCCCN2CCOCC2)nc(SCCCCCCCCC)n1 [D8S9^2N12] | 0.3%
33 | CCCCCCCCCCCCCCCCCCSc1nc(NCCCCCCCCCCC)nc(NCCN2CCCCC2)n1 [Compound D4S18N11] | 0.9%
34 | CCCCCCCCCCCCCCCNc1nc(NCCCN2CCOCC2)nc(SCCCCCCCCCCCC)n1 [Compound D8S12N15] | 0.0%
35 | CCCCCCCCCCCCCCCCSc1nc(NCCN2CCCCC2)nc(SCCCCCC)n1 [Compound D4S6S16] | 5.1%
36 | CCCCCCCCCCCCCCCSc1nc(NCCCCCCCCCCCCC)nc(NCCN(CC)CC)n1 [Compound D7S15N13] | 5.2%
37 | CCCCCCCCSc1nc(NCCCCCC)nc(NCCN(CC)CC)n1 [Compound D7S8N6] | 0.8%
38 | CCCCCCCCSc1nc(NCCCCCC)nc(NCCCN(C)C)n1 [Compound D6S8N6] | 9.4%
39 | CCCCCCCCCCCCSc1nc(NCCCCCCCCC)nc(NCCCN2CCN(C)CC2)n1 [Compound D9S12N9] | 25.6%
40 | CCCCCCCCCCCSc1nc(NCCCCCCC)nc(NCCN2CCCCC2)n1 [Compound D4S11N7] | 2.3%
41 | CCCCCCCCCCCCCCSc1nc(NCCCCCCCC)nc(NCCN(CC)CC)n1 [Compound D7S14N8] | 10.8%
42 | CCCCCCCCCCCCN(CCCCCCCCCCCC)c1nc(NCCN2CCOCC2)nc(SCCCCCCCCCC)n1 [D2S10^2N12] | 0.0%
43 | CCCCCCCCCCCCCCCSc1nc(NCCCCCCCCCCCCC)nc(NCCN2CCCC2)n1 [Compound D3S15N13] | 3.0%
44 | CCCCCCCCSc1nc(NCCCN2CCN(C)CC2)nc(SCCCCCC)n1 [Compound D9S6S8] | 3.0%
45 | CCCCCCCCCCCCCCCCNc1nc(NCCN2CCCC2)nc(SCCCCCCCCCCC)n1 [Compound D3S11N16] | 15.7%
46 | CCCCCCCCCCCCCNc1nc(NCCCN2CCN(C)CC2)nc(SCCCCCCCCCC)n1 [Compound D9S10N13] | 2.7%
47 | CCCCCCCCCCCCCNc1nc(NCCN2CCN(C)CC2)nc(SCCCCCCCC)n1 [Compound D5S8N13] | 44.2%
48 | CCCCCCCCCCCCCCCCCCSc1nc(NCCCCCCCC)nc(NCCCN(C)C)n1 [Compound D6S18N8] | 74.5%
49 | CCCCCCCCCCSc1nc(NCCCCCCCCC)nc(NCCN2CCCCC2)n1 [Compound D4S10N9] | 0.2%
